Legend:
[1] = tested on: Propionibact. acnes ATCC 6919 L1014; assay: MIC by microbroth dilution; assay type: cell-based, Propionibacterium acnes; conditions: 0,01% BSA, 10^5 CFU/ml, 48 h, anaerobic, Wilkins-Chalgren broth
Procedure: (§1) The minimal inhibitory concentration (MIC) has been determined by microbroth dilution methodology, in the presence of 0,01% (w/v) of bovine serum albumin (BSA). BSA is added to the diluent to avoid possible adherence of the compounds of the invention to the plastic surface of the microtiter wells, as disclosed also by B. Goldstein et al., Antimicrobial Agents and Chemotherapy, 37 (1993), 741-745.
(§2) Inocula were 10^4 CFU/ml, except for Propionibacterium acnes and Bacteroides fragilis (10^5 CFU/ml) MICs were read after 18-24 h, except for Haemophilus influenzae, P. acnes, B. fragilis (48 h).
(§3) All microorganisms were incubated at 37° C.; H. influenzae in a 5% CO2 atmosphere, anaerobes in a N2 --CO2 --H2 (80:10:10) mixture; other organisms in air.
(§4) The growth media are: Oxoid Iso-Sensitest broth for staphylococci and Enterococcus faecalis); Difco Todd Hewitt broth for streptococci; Difco brain heart infusion broth+1% Difco Supplement C. for H. influenzae; Difco Wilkins-Chalgren broth for anaerobes.

Strept. agalactiae L310 = assay: MIC by microbroth dilution; assay type: cell-based, Streptococcus agalactiae; conditions: 0,01% BSA, 10^4 CFU/ml, 18-24 h, Todd Hewitt broth
Procedure: as §1, §2, §3, §4

Strept. sanguis L1721 = assay: MIC by microbroth dilution; assay type: cell-based, Streptococcus sanguis; conditions: 0,01% BSA, 10^4 CFU/ml, 18-24 h, Todd Hewitt broth
Procedure: as §1, §2, §3, §4

Staph. haemolyticus L602 = assay: MIC by microbroth dilution; assay type: cell-based, Staphylococcus haemolyticus; conditions: 0,01% BSA, 10^4 CFU/ml, 18-24 h, Iso-Sensitest broth
Procedure: as §1, §2, §3, §4

[2] = tested on: Enterococcus faecalis ATCC 7080 L149; assay: MIC by microbroth dilution; assay type: cell-based; conditions: Enterococc. faecalis ATCC 7080 L149; 0,01% BSA; 10^4 CFU/ml; 18-24 h; Iso-Sensitest broth
Procedure: as §1, §2, §3, §4

[3] = tested on: Bacteroides fragilis ATCC 25285 L1011; assay: MIC by microbroth dilution; assay type: cell-based; conditions: 0,01% BSA, 10^5 CFU/ml, 48 h, anaerobic, Wilkins-Chalgren broth
Procedure: as §1, §2, §3, §4

[4] = tested on: Staphylococcus aureus L165; assay: MIC by microbroth dilution; assay type: cell-based; conditions: 0,01% BSA, inoculum 10^4 CFU/ml, read after 18-24 h, Iso-Sensitest broth
Procedure: as §1, §2, §3, §4

[5] = tested on: Streptococcus pyogenes L49; assay: MIC by microbroth dilution; assay type: cell-based; conditions: 0,01% BSA, 10^4 CFU/ml, 18-24 h, Todd Hewitt broth
Procedure: as §1, §2, §3, §4

[6] = tested on: Staph. epidermidis ATCC 12228 L147; assay: MIC by microbroth dilution; assay type: cell-based, Staphylococcus epidermidis; conditions: 0,01% BSA, 10^4 CFU/ml, 18-24 h, Iso-Sensitest broth
Procedure: as §1, §2, §3, §4

[7] = tested on: Haemoph. influenzae ATCC 19418 L970; assay: MIC by microbroth dilution; assay type: cell-based, Haemophilus influenzae; conditions: 0,01% BSA, 10^4 CFU/ml, 48 h, 5% CO2, brain heart infusion broth+1% Supplement C
Procedure: as §1, §2, §3, §4

Strept. pneumoniae L44 = assay: MIC by microbroth dilution; assay type: cell-based, Streptococcus pneumoniae; conditions: 0,01% BSA, 10^4 CFU/ml, 18-24 h, Todd Hewitt broth
Procedure: as §1, §2, §3, §4

gram positive bacteria = conditions: from K. Shimanaka et al.; cited from earlier work

SMILES | MIC of the compounds [1] [µg/mL] | MIC of the compounds (Strept. agalactiae L310) [µg/mL] | MIC of the compounds (Strept. sanguis L1721) [µg/mL] | MIC of the compounds (Staph. haemolyticus L602) [µg/mL] | MIC of the compounds [2] [µg/mL] | MIC of the compounds [3] [µg/mL] | MIC of the compounds [4] [µg/mL] | MIC of the compounds [5] [µg/mL] | MIC of the compounds [6] [µg/mL] | MIC of the compounds [7] [µg/mL] | MIC of the compounds (Strept. pneumoniae L44) [µg/mL] | antimicrobial activity (gram positive bacteria)
CNC(=O)CC1NC(=O)c2csc(n2)-c2ccc(-c3nc(C4=NC(C(=O)N(C)CCN5CCN(CCO)CC5)CO4)cs3)nc2-c2csc(n2)-c2csc(n2)C(C(O)c2ccccc2)NC(=O)CNC(=O)c2nc(sc2COC)C(C(C)C)NC(=O)c2nc1sc2C (mixture of isomers) [Compound 19] | 0.016 | 2 | 0.13 | 0.13 | 0.016 | 4 | 0.06 | 1 | 0.13 | 16 | 0.13 | –
CNC(=O)CC1NC(=O)c2csc(n2)-c2ccc(-c3nc(C4=NC(C(=O)NC5CNC(C(N)=O)C5)CO4)cs3)nc2-c2csc(n2)-c2csc(n2)C(C(O)c2ccccc2)NC(=O)CNC(=O)c2nc(sc2COC)C(C(C)C)NC(=O)c2nc1sc2C.O=C(O)C(F)(F)F (mixture of isomers) [Compound 13] | 0.13 | – | – | 0.5 | 0.06 | > 128 | 0.13 | 4 | 0.5 | 128 | 0.5 | –
CNC(=O)CC1NC(=O)c2csc(n2)-c2ccc(-c3nc(C4=NC(C(=O)N(C)CCN(C)C)CO4)cs3)nc2-c2csc(n2)-c2csc(n2)C(C(O)c2ccccc2)NC(=O)CNC(=O)c2nc(sc2COC)C(C(C)C)NC(=O)c2nc1sc2C (stereo not shown) [Compound 4s] | 0.03 | 0.5 | 0.13 | 0.06 | 0.016 | 8 | 0.06 | 1 | 0.06 | 64 | 0.25 | –
CNC(=O)CC1NC(=O)c2csc(n2)-c2ccc(-c3nc(C4=NC(C(=O)N(C)CCN5CCN(CCO)CC5)CO4)cs3)nc2-c2csc(n2)-c2csc(n2)C(C(O)c2ccccc2)NC(=O)CNC(=O)c2nc(sc2COC)C(C(C)C)NC(=O)c2nc1sc2C (stereo not shown) [Compound 19s] | 0.016 | – | – | 0.13 | 0.016 | 8 | 0.06 | 1 | 0.06 | 8 | 0.13 | –
CNC(=O)CC1NC(=O)c2csc(n2)-c2ccc(-c3nc(C4=NC(C(=O)N5CCC(N(C)C)CC5)CO4)cs3)nc2-c2csc(n2)-c2csc(n2)C(C(O)c2ccccc2)NC(=O)CNC(=O)c2nc(sc2COC)C(C(C)C)NC(=O)c2nc1sc2C (stereo not shown) [Compound 10s] | 0.016 | 2 | 0.5 | 0.13 | 0.03 | 8 | 0.03 | 1 | 0.06 | 8 | 0.5 | –
CNC(=O)CC1NC(=O)c2csc(n2)-c2ccc(-c3nc(C4=NC(C(=O)N5CCCC5C(N)=O)CO4)cs3)nc2-c2csc(n2)-c2csc(n2)C(C(C)C)NC(=O)CNC(=O)c2csc(n2)C(C(C)C)NC(=O)c2nc1sc2C (stereo not shown) [amythiamicin factor A] | – | – | – | – | – | – | – | – | – | – | – | shows antimicrobial activity against gram positive bacteria
